In brackets after ≈: the same amount, converted by molar mass. Entries after “also recorded” stand apart in the source; their conditions may differ. Where two headings read alike, the source gives them in different places.
Legend:
[1] = tested on: S. aureus; assay: Disc clearing assay; format: cell-based, Staphylococcus aureus; settings: result in words
Method: (§1) Disc clearing assay: The disc diffusion test was performed on Mueller Hinton (MH) agar plates for bacterial cultures and yeast extract, peptone, dextrose (YPD) for fungal cultures. The assay was repeated 3 times. Discs were soaked in 10 μl of either DMSO or 10 mg/ml compound stock solution and air-dried. Three hundred microliters of an overnight culture of bacteria or fungi were spread on plates. After completely drying the agar plate in a laminar flow hood, DMSO or compound impregnated discs were overlaid on the plate and incubated at 35° C. for 18 hrs.
The disc diffusion test was carried out in triplicate on cation-adjusted Miller-Hinton agar. 6 mm discs were impregnated with 50 μg of compounds and air-dried. Three hundred microliters of an overnight S. aureus MW2 culture was spread on an agar plate and air-dried. The antimicrobial discs were overlaid on the plate and incubated at 37° C. for 20 hrs.

[2] = tested on: E. faecium; assay: Disc clearing assay; format: cell-based, Enterococcus faecium; settings: result in words
Method: as §1

[3] = tested on: A. baumannii; assay: Disc clearing assay; format: cell-based, Acinetobacter baumannii; settings: result in words
Method: as §1

[4] = tested on: B. subtilis; assay: Disc clearing assay; format: cell-based, Bacillus subtilis; settings: result in words
Method: as §1

[5] = tested on: E. faecalis; assay: Disc clearing assay; format: cell-based, Enterococcus faecalis; settings: result in words
Method: as §1

[6] = tested on: C. neoformans; assay: Disc clearing assay; format: cell-based, Cryptococcus neoformans; settings: impregnated filter; result in words
Method: as §1

[7] = tested on: C. glabrata; assay: Disc clearing assay; format: cell-based, Candida glabrata; settings: result in words
Method: as §1

[8] = tested on: C. parapsilosis; assay: Disc clearing assay; format: cell-based, Candida parapsilosis; settings: result in words
Method: as §1

[9] = tested on: C. tropicalis; assay: Disc clearing assay; format: cell-based, Candida tropicalis; settings: result in words
Method: as §1

[10] = tested on: MRSA strain MW2; assay: Checkerboard assay (combination); format: cell-based, Staphylococcus aureus; settings: result in words
Method: (§2) Checkerboard assay (e.g., antibiotic synergy test): The antimicrobial or antifungal activity of a combination of a compound of present application with other agents was determined through a checkerboard assay. The checkerboard method for determining synergy of synthetic retinoids with conventional antibiotics can be conducted, for example, as previously described (See, e.g., Rajamuthiah, R. et al. A defensin from the model beetle Tribolium castaneum acts synergistically with telavancin and daptomycin against multidrug resistant Staphylococcus aureus. PLoS ONE 10, e0128576 (2015)) The compounds whose combinations were being tested were arrayed in serial concentrations, vertically for one compound and horizontally for the other compound in the same 96 well microplate. 2-fold serial dilutions of each retinoid were combined with 2-fold serial dilutions of each conventional antibiotic, which created an 8×8 matrix in a 96-well microtiter plate. The rest of the procedure involving addition of pathogen and measurement of growth was carried out as described for measurement of MIC.
The Fractional Inhibitory Concentration (FIC) index for two compounds, A and B, is defined by the following equation: FIC=((A/MIC^A)+(B/MIC^B)). MIC^A and NIC^B are MICs of compound A or B respectively. (A) is the lowest concentration of compound A in combination with compound B that inhibits growth of a pathogen and (B) is the lowest concentration of compound B that inhibits growth of a pathogen.
Optical densities at 600 nm were measured after 18 h of incubation at 37° C. The results represent three independent experiments.

[11] = tested on: C. albicans; assay: Static versus cidal assessment (MFC); format: cell-based, Candida albicans; settings: result in words
Method: The minimum fungicidal concentration was (MFC) was determined as follows: 10 μl of yeast culture from each micro-well of the MIC assay was plated on YPD agar and incubated at 35° C. overnight. The lowest compound concentration at which there was no fungal colony growth was considered the MFC.

[12] = tested on: C. albicans biofilm; assay: Biofilm growth on silicone pads; format: cell-based, Candida albicans; settings: result in words
Method: C. albicans were grown in YPD medium overnight at 30° C., diluted to an OD600 of 0.5 in 2 mL Spider medium, and added to a well of a sterile 12-well plate containing a silicone pad measuring 1.5×1.5 cm that had been pretreated overnight with bovine serum (Sigma-Aldrich). The inoculated 12-well plate was incubated with gentle agitation (150 rpm) for 90 min at 37° C. for adhesion to occur. The samples were washed with 2 ml PBS, and after the 90-min incubation, and PBS wash, auranofin was added to fresh media at 4 μg/ml (n=4), 8 μg/ml (n=4), 16 μg/ml (n=4), and 32 μg/ml (n=4).
Control groups were included that contained C. albicans alone in Spider medium without auranofin (n=4) and a negative control group of Spider medium without any fungal cells (n=4).
The silicone pads with biofilm were removed from the wells, dried overnight, and weighed the following day. The total biomass (mg) of each biofilm was calculated by subtracting the weight of the platform material prior to biofilm growth from the weight after the drying period and adjusting for the weight of a control pad exposed to no cells.
Statistical significance among the different groups was determined by the analysis of variance (ANOVA) and the Tukey test using the Graph Pad Prism Program.

[13] = tested on: C. neoformans; assay: Checkerboard assay with oxidizing agents; format: cell-based, Cryptococcus neoformans; settings: result in words
Method: as §2
(§3) The Fractional Inhibitory Concentration (FIC) index for two compounds, A and B, is defined by the following equation: FIC=((A/MIC^A)+(B/MIC^B)). MIC^A and NIC^B are MICs of compound A or B respectively. […]

[14] = Checkerboard assay of auranofin with amphotericin B and fluconazole; format: cell-based; settings: result in words
Method: as §2, §3

[15] = tested on: S. aureus, E. faecium, and A. baumannii; assay: Static versus cidal assessment (MBC); format: cell-based; settings: result in words
Method: Static versus cidal assessment: The minimum bactericidal concentration (MBC) was determined as follows: 10 μl of bacterial culture from each micro-well of the MIC assay was plated on MH agar and incubated at 35° C. overnight. The lowest compound concentration at which there was no bacterial colony growth was considered the MBC.

[16] = tested on: E. faecium; assay: Checkerboard assay with glutathione; format: cell-based, Enterococcus faecium; settings: result in words
Method: as §2, §3

[17] = tested on: S. aureus; assay: Minimal inhibitory concentration (MIC), broth microdilution; format: cell-based, Staphylococcus aureus; settings: for MIC: Staphylococcus aureus, read-out: MIC
Method in brief: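 MIC values against methicillin-resistant Staphylococcus aureus were determined by standard broth microdilution following Clinical and Laboratory Standards Institute guidance (CLSI document M07-A8). Each well held 100 μl of test compound plus bacterial cells in MH broth, with the starting OD600 set to 0.03. Plates were incubated 18 hrs at 35° C. and absorbance was then read at 595 nm.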

[18] = tested on: K. pneumoniae; assay: Disc clearing assay; format: cell-based, Klebsiella pneumoniae; settings: result in words
Method: as §1

[19] = tested on: P aeruginosa; assay: Disc clearing assay; format: cell-based, Pseudomonas aeruginosa; settings: result in words
Method: as §1

[20] = tested on: E. spp.; assay: Disc clearing assay; format: cell-based, Enterobacter sp.; settings: result in words
Method: as §1

[21] = tested on: human erythrocytes; assay: Human blood hemolysis; format: cell-based; settings: increasing concentrations; result in words
Method: Human blood hemolysis. Hemolytic activity of retinoids on human erythrocytes was evaluated using a previously described method with modifications (Rajamuthiah, R. et al. A defensin from the model beetle Tribolium castaneum acts synergistically with telavancin and daptomycin against multidrug resistant Staphylococcus aureus. PLoS ONE 10, e0128576 (2015)). 10% human erythrocytes were purchased from Rockland Immunochemicals (Limerick, Pa., USA). The erythrocytes were diluted to 4% with PBS, and 100 μl was added to 100 μl of two-fold serial dilutions of compounds in PBS, 0.2% DMSO (negative control), or 2% Triton-X 100 (positive control) in a 96-well plate. The 96-well plate was incubated at 37° C. for 1 h and then centrifuged at 500×g for 5 min. 100 μl of the supernatant was transferred to a fresh 96-well plate, and absorbance of supernatants was measured at 540 nm. Percent hemolysis was calculated using the following equation: (A540 nm of compound treated sample—A540nm of 0.1% DMSO treated sample)/(A540 nm of 1% Triton X-100 treated sample—A540nm of 0.1% DMSO treated sample)×100. HC50 (concentration of a compound causing 50% hemolysis) was determined using SigmaPlot 10.0 (Systat Software Inc., San Jose, Calif., USA).
In a 96 well plate, 50 μl of 2% human erythrocytes suspended in PBS was added to 50 μl of compounds serially diluted in PBS and incubated at 37° C. for 1 hour. The plate was then centrifuged at 500 G for 5 minutes and 50 μl of the supernatant from each well of the assay plate was transferred to a fresh 96 well plate. Hemolysis was confirmed by both visual observation and measuring absorbance at 540 nm. Treatment was conducted in triplicate.
2% human erythrocytes were treated with two-fold serially diluted concentration of the retinoids for 1 h at 37° C. A sample treated with 1% Triton-X 100 was used as the control for 100% hemolysis. Results are shown as means±s.d.; n=3.

[22] = tested on: HepG2 cells; assay: Toxicity assay with HepG2 liver cells (WST-1); format: cell-based; settings: 24 hours; result in words
Method: HepG2 cells were cultured in Dulbecco's modified Eagle medium (DMEM) containing 10% fetal bovine serum, 25 mM D-glucose, 2 mM L-glutamine, 1 mM sodium pyruvate and 1% penicillin/streptomycin and maintained at 37° C. in 5% CO2. For the toxicity test, HepG2 were cultured at 70-80% confluence in 96-well plates in a volume of 100 μl/well culture medium. Serially diluted chemical compounds were incubated with the cells at 37° C. in 5% CO2 for 24 hours. Ten microliters of 4-(3-(4-iodophenyl)-2-(4-nitrophenyl)-2H-5-tetrazolio)-1,3-benzene disulfonate (WST-1) solution were added per well for the last 4 hours of the 24 hours period. WST-1 reduction was detected using absorbance at 490 nm by a Vmax microplate reader. The percent […] relative to that of the no-treatment control was calculated. The assay was done in triplicate.

CC[P](CC)(CC)=[Au][S][C@@H]1O[C@H](COC(C)=O)[C@@H](OC(C)=O)[C@H](OC(C)=O)[C@H]1OC(C)=O [Auranofin, 2,3,4,6-tetra-o-acetyl-1-thio-D-glucanpyranosato-S-(triethyl-phosphine)-gold]
zone of inhibition, S. aureus [1]: zone of inhibition
zone of inhibition, E. faecium [2]: zone of inhibition
zone of inhibition, A. baumannii [3]: zone of inhibition
zone of inhibition, B. subtilis [4]: clearing; also recorded: zone of inhibition
zone of inhibition, E. faecalis [5]: clearing; also recorded: zone of inhibition
clearing of C. neoformans [6]: clearing
zones of inhibition, C. glabrata [7]: zones of inhibition
zones of inhibition, C. parapsilosis [8]: zones of inhibition
zones of inhibition, C. tropicalis [9]: zones of inhibition
interaction with hydrogen peroxide ([10]; S. aureus): did not provide any synergistic activity
static versus cidal activity against C. albicans [11]: fungistatic
C. albicans biofilm formation [12]: not significantly reduced
MIC change in the presence of menadione [13]: no change in MIC
interaction with diamide and hydrogen peroxide [13]: additive effect
interaction with amphotericin B and fluconazole [14]: additive effects but not synergism
static versus cidal nature of the inhibition [15]: bacteriostatic at the MIC concentration but bactericidal at higher concentrations

N[C@@H](CCC(=O)N[C@@H](CS)C(=O)NCC(=O)O)C(=O)O [Glutathione]
inhibition of S. aureus by the agent alone [10]: did not inhibit
inhibition of E. faecium by the agent alone [16]: did not inhibit

CC1COc2c(N3CCN(C)CC3)c(F)cc3c(=O)c(C(=O)OCc4ccccn4)cn1c23 (stereo not shown) [Z3060, pyridin-2-ylmethyl 9-fluoro-3-methyl-10-(4-methylpiperazin-1-yl)-7-oxo-3,7-dihydro-2H-[1,4]oxazino[2,3,4-ij]quinoline-6-carboxylate]
MIC ([17]; S. aureus (reference strain)): 2 µg/mL (≈ 4.42 µM)
MIC ([17]; clinical isolates of S. aureus (Z3060)): 1 to 2 µg/mL (≈ 2.21 to 4.42 µM)
MIC change ([17]; clinical isolates known to be drug resistant, result in words): increased
zone of inhibition, E. faecium [2]: zone of inhibition
zone of inhibition, K. pneumoniae [18]: zone of inhibition
zone of inhibition, A. baumannii [3]: zone of inhibition
zone of inhibition, P aeruginosa [19]: zone of inhibition
zone of inhibition, E. spp. [20]: zone of inhibition
toxicity (hemolysis) to erythrocytes [21]: did not exhibit lysis
HepG2 cell viability [22]: cell viability are maintained

Reference: patent US11707442B2, “Antibacterial and antifungal compounds” (The General Hospital Corporation, priority 2015, dated 2023)
